Data published in paper PMC8605905 (Oxidative Medicine and Cellular Longevity, 2021).

Legend:
Assay type in all cases: cell-based, Human
[1] = system: CRE-GFP 293 cells; assay: CRE-GFP 293 reporter cell assay (flow cytometry); conditions: inhibitor 10 μM 4 h before LM-021 10 μM, presence or absence of Ca2+ ionophore
Text: Using the pCRE-MetLuc2-Reporter plasmid (Clontech, Mountain View, CA, USA) as a template, the DNA fragment containing the cAMP response element (CRE) motifs and TATA-like promoter (PTAL) flanked by MluI and AgeI restriction sites was amplified by PCR using sense ([…], MluI site underlined) and antisense ([…], AgeI site underlined) primers. The amplified CRE-PTAL promoter fragment was cloned into pGEM-T Easy (Promega, Madison, WI, USA) and sequenced. The CRE-PTAL-containing MluI/AgeI fragment and GFP-containing AgeI/NotI fragment (from pEGFP-N1; Clontech) were subcloned into MluI- and NotI-digested pcDNA5/FRT/TO (Novagen, Madison, WI, USA). The resulting construct with CRE-PTAL-driving GFP was used to establish 293 GFP reporter cells by targeting insertion into Flp-In-293 cells according to the supplier's instructions (Invitrogen). The cells were grown in a medium containing 5 μg/ml blasticidin and 100 μg/ml hygromycin.
On day 1, CRE-GFP 293 cells were seeded into 48-well plates (5 × 10^4/well). After 24 h, cells were treated with Ca^2+ ionophore (2 μM) (Sigma-Aldrich) for 0–24 h. Cell viability was measured using 3,(4,5-dimethylthiazol-2-yl)-2,5-diphenyltetrazolium bromide (MTT) assay (Sigma-Aldrich). The absorbance of the insoluble purple formazan dye was quantified at 570 nm on a μQuant microplate spectrophotometer (Bio-Tek). In addition, the cells were treated with the Ca^2+ ionophore A23187 (0.5–10 μM) (Sigma-Aldrich) for 5 h, followed by analysis of GFP fluorescence by flow cytometry (Becton–Dickinson, Franklin Lakes, NJ, USA) with excitation/emission wavelengths at 488/507 nm. To monitor CREB activation, cells were treated with forskolin or coumarin-chalcone derivatives (5–10 μM) in the presence or absence of Ca^2+ ionophore (2 μM) for 5 h, and GFP fluorescence was analysed.
(§1) To monitor the cAMP-mediated signal transduction pathway, CRE-GFP 293 cells in 6-well plates (1 × 10^6/well) were pretreated with kinase inhibitor H-89 (LC Laboratories, Woburn, MA, USA), KN-62 (Cayman Chemical, Ann Arbor, MI, USA), U0126 (LC Laboratories), or wortmannin (LC Laboratories) (10 μM) for 4 h before forskolin or LM-021 (10 μM) addition for 5 h. GFP fluorescence/protein and total/phosphorylated PKA, CaMKII, ERK, PI3K, and CREB levels were examined. In addition, Aβ-GFP or ∆K280 tauRD-DsRed SH-SY5Y cells were treated with retinoic acid (10 μM) on day 1, followed by the addition of LM-021 (5 or 10 μM) and doxycycline (5 or 2 μg/ml) on day 2, as described. Kinase inhibitors (10 μM) were added on day 6. On day 8, the cells were collected for protein expression analysis of BDNF, BCL2 (BCL2 apoptosis regulator), and BAX (BCL2 associated X, apoptosis regulator), and total/phosphorylated PKA, CaMKII, ERK, PI3K, and CREB. Also, cells were stained with DAPI and assessed for neurite outgrowth as described above.

[2] = system: Aβ-GFP SH-SY5Y cells; assay: High content analysis of neurite outgrowth in Aβ-GFP cells; conditions: inhibitor 10 μM on day 6, LM-021 5 μM
Protocol: (§2) On day 1, Aβ-GFP or ∆K280 tauRD-DsRed SH-SY5Y cells were plated into 24-well plates (6 × 10^4/well) followed by addition of retinoic acid. On day 2, cells were treated with coumarin-chalcone derivatives (5 or 10 μM) and with doxycycline (5 or 2 μg/ml) to induce the expression of Aβ-GFP or ∆K280 tauRD-DsRed. On day 8, 4% paraformaldehyde, 0.1% Triton X-100, and 3% BSA were used to fix, permeabilize, and block cells, respectively. Subsequently, the cells were stained with TUBB3 (neuronal class III β-tubulin) primary antibody (1 : 1000; Covance, Princeton, NJ, USA) at 4°C overnight. Goat anti-rabbit Alexa Fluor 555 secondary antibody (1 : 1000; Thermo Fisher Scientific) was then added, followed by a 3 h incubation at room temperature. Following staining nuclei with 4′,-6-diamidino-2-phenylindole (DAPI) (0.1 μg/ml; Sigma-Aldrich), the neurons were imaged by using the HCA system and analysed by using the Neurite Outgrowth Application Module (MetaXpress; Molecular Devices).
as §1

[3] = system: ∆K280 tauRD-DsRed SH-SY5Y cells; assay: High content analysis of neurite outgrowth in ΔK280 tauRD-DsRed cells; conditions: inhibitor 10 μM on day 6, LM-021 10 μM
Protocol: as §2, §1

[4] = system: CRE-GFP 293 cells; assay: Western blot in CRE-GFP 293 cells; conditions: inhibitor 10 μM, LM-021 10 μM, without Ca2+ ionophore, immunoblot
Protocol: as §1
Total proteins from CRE-GFP 293 and Aβ-GFP, ∆K280 tauRD-DsRed SH-SY5Y cells were extracted using lysis buffer (50 mM Tris-HCl (pH 8.0), 150 mM NaCl, 1 mM EDTA (pH 8.0), 1 mM EGTA (pH 8.0), 0.1% SDS, 0.5% sodium deoxycholate, 1% Triton X-100) containing phosphatase and protease inhibitor cocktails (Sigma-Aldrich). Protein concentrations were measured using a protein assay kit (Bio-Rad, Hercules, CA, USA), and 20 μg of proteins was separated with 10% SDS-PAGE and blotted onto polyvinylidene difluoride (PVDF) membranes (Sigma-Aldrich). […]

[5] = system: Aβ-GFP SH-SY5Y cells; assay: Western blot in Aβ-GFP SH-SY5Y cells; conditions: inhibitor 10 μM on day 6, LM-021 5 μM
Protocol: as §1
(§3) Total proteins from CRE-GFP 293 and Aβ-GFP, ∆K280 tauRD-DsRed SH-SY5Y cells were extracted using lysis buffer (50 mM Tris-HCl (pH 8.0), 150 mM NaCl, 1 mM EDTA (pH 8.0), 1 mM EGTA (pH 8.0), 0.1% SDS, 0.5% sodium deoxycholate, 1% Triton X-100) containing phosphatase and protease inhibitor cocktails (Sigma-Aldrich). Protein concentrations were measured using a protein assay kit (Bio-Rad, Hercules, CA, USA), and 20 μg of proteins was separated with 10% SDS-PAGE and blotted onto polyvinylidene difluoride (PVDF) membranes (Sigma-Aldrich). After blocking, the membrane blot was incubated with primary antibody against GFP (1 : 500; Santa Cruz Biotechnology, Santa Cruz, CA, USA), PKA (1 : 1000; R&D Systems, Minneapolis, MN, USA), p-PKA (T197) (1 : 1000; Cell Signaling, Danvers, MA, USA), ERK (1 : 500; Cell Signaling), p-ERK (T202/Y204) (1 : 500; Cell Signaling), CaMKII (1 : 1000; Santa Cruz Biotechnology), p-CaMKII (T286) (1 : 1000; Cell Signaling), CREB (1 : 1000; Santa Cruz Biotechnology), p-CREB (S133) (1 : 1000; Millipore, Billerica, MA, USA), BDNF (1 : 500; Santa Cruz Biotechnology), BCL2 (1 : 500; BioVision), BAX (1 : 500; BioVision), GAPDH (glyceraldehyde-3-phosphate dehydrogenase, as a loading control) (1 : 1000; MDBio, Taipei, Taiwan), or β-tubulin (1 : 1000, Sigma-Aldrich, as a loading control). The immune complexes were visualized using horseradish peroxidase-conjugated goat anti-mouse or goat anti-rabbit IgG antibody (1 : 5000, GeneTex, Irvine, CA, USA) and a chemiluminescent substrate (Millipore).

[6] = system: ∆K280 tauRD-DsRed SH-SY5Y cells; assay: Western blot in ΔK280 tauRD-DsRed SH-SY5Y cells; conditions: inhibitor 10 μM on day 6, LM-021 10 μM
Protocol: as §1, §3

N#CC(=C(/N)Sc1ccccc1N)/C(C#N)=C(/N)Sc1ccccc1N [U0126]
Effect of kinase inhibitor on LM-021-activated GFP levels [1]: attenuated the GFP levels
Effect of kinase inhibitor on LM-021-improved neurite length, processes, and branches [2]: counteracted these improvements
Effect of kinase inhibitor on LM-021-ameliorated neurite length and branch length [3]: reversed these effects
Effect of kinase inhibitor on increased p-CREB and GFP protein levels [4]: significantly reduced
Effect of kinase inhibitor on LM-021-upregulated kinase phosphorylation [5]: normalized p-ERK
Effect of kinase inhibitor on LM-021 increase in p-CREB, pro-BDNF, m-BDNF, and BCL2 [5]: attenuated the increase
Effect of kinase inhibitor on LM-021-upregulated kinase phosphorylation [6]: attenuated the rescue of p-ERK
Effect of kinase inhibitor on LM-021 upregulation of p-CREB, pro-BDNF, m-BDNF, and BCL2 [6]: attenuated the upregulation
